Assay results as given in ChEMBL document CHEMBL6134930, “Discovery of AB801, a Potent and Selective Inhibitor of AXL Receptor Tyrosine Kinase for Use in Cancer Therapy” (J Med Chem, 2025).
Active and inactive are the calls of the source. The calls are words filed in the database; no cut-off is given here.

Assays:
[1] = Clearance in Beagle dog at 0.5 mg/kg, iv measured up to 24 hrs by LC-MS/MS analysis; assay type: ADME, organism-based, Canis lupus familiaris; settings: in vivo
[2] = target: T1, CYP2B6 (Homo sapiens, UniProt P20813); assay: Time dependent inhibition of CYP2B6 (unknown origin) at 30 uM measured after 30 mins relative to control; assay type: ADME; settings: read-out: TDI
T1 sequence (P20813 whole entry): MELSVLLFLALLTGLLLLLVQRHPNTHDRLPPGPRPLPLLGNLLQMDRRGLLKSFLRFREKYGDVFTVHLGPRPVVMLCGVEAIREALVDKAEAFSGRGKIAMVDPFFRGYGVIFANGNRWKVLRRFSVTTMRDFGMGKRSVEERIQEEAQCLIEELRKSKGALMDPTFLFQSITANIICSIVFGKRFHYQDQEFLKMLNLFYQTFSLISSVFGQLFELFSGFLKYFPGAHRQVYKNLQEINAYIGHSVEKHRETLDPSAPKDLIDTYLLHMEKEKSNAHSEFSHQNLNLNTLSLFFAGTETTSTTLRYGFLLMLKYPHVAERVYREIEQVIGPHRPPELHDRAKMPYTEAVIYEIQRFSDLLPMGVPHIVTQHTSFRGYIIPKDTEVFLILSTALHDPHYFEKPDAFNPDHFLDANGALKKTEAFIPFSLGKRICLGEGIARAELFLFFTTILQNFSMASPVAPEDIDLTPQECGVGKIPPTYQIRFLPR

[3] = target: CYP2D6 (Homo sapiens, UniProt P10635); assay: Time dependent inhibition of CYP2D6 (unknown origin) at 30 uM measured after 30 mins relative to control; assay type: ADME; settings: read-out: TDI
[4] = target: T2, CYP3A4 (Homo sapiens, UniProt P08684); assay: Time dependent inhibition of CYP3A4 (unknown origin) using testosterone as substrate at 30 uM measured after 30 mins relative to control; assay type: ADME; settings: probe testosterone, read-out: TDI
[5] = target: T3, CYP2C8 (Homo sapiens, UniProt P10632); assay: Time dependent inhibition of CYP2C8 (unknown origin) at 30 uM measured after 30 mins relative to control; assay type: ADME; settings: read-out: TDI
T3 sequence (P10632 whole entry): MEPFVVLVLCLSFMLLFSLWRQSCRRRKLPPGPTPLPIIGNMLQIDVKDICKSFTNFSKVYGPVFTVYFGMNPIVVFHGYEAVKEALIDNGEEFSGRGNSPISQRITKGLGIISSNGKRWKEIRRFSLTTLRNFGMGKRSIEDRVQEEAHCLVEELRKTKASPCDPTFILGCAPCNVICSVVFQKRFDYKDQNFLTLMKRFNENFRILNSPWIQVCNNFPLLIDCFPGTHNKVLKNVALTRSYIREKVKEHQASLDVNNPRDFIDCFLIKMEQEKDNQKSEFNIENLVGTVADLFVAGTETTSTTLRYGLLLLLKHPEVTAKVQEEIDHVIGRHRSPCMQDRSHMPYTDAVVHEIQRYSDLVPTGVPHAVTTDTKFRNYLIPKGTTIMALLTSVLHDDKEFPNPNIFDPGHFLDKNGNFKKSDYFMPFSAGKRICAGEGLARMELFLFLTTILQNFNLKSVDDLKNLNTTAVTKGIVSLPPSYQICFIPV

[6] = target: T4, Tyrosine-protein kinase receptor UFO (Homo sapiens, UniProt P30530); assay: Inhibition of human AXL measured after 150 mins by ATP-competitive HTRF based biochemical assay
T4 sequence (P30530 whole entry): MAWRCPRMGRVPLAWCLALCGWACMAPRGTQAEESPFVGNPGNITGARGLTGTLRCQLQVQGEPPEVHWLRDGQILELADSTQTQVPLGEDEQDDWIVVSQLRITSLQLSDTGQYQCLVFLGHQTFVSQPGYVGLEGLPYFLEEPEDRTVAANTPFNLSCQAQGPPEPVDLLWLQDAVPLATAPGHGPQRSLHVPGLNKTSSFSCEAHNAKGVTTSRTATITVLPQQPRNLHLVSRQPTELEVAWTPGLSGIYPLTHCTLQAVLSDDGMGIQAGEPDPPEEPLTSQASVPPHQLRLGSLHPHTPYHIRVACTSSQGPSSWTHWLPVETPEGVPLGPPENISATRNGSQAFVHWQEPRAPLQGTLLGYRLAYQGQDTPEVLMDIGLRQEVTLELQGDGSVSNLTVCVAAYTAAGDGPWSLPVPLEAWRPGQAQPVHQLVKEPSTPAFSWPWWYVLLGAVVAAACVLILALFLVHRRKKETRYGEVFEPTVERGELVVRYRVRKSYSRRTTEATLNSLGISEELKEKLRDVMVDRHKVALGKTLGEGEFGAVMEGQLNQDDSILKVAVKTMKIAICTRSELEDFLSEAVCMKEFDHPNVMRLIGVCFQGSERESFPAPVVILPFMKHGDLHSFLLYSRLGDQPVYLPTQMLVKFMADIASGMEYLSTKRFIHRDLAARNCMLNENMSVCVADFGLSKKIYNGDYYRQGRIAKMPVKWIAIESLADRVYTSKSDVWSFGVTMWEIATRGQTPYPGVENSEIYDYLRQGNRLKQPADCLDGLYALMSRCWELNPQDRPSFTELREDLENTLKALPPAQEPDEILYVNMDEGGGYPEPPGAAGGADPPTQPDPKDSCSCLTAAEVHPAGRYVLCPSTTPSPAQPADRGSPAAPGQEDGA

[7] = target: T4, Tyrosine-protein kinase receptor UFO; assay: Inhibition of autophosphorylation AXL (unknown origin) expressed in HEK293 cells assessed as NanoLuc activity associated with phosphorylated proteins measured after 1 hr incubation by intracellular pAXL-ELISA; assay type: cell-based
[8] = Metabolic stability in human hepatocytes assessed as intrinsic clearance measured per 10^6 cells; assay type: ADME, cell-based, Hepatocyte; settings: read-out: CLH
[9] = Efflux ratio in human Caco-2 cells; assay type: ADME, cell-based
[10] = Apparent permeability of compound from apical to basolateral side in human Caco-2 cells; assay type: ADME, cell-based; settings: read-out: permeability
[11] = target: CYP2C9 (Homo sapiens, UniProt P11712); assay: Time dependent inhibition of CYP2C9 (unknown origin) at 30 uM measured after 30 mins relative to control; assay type: ADME; settings: read-out: TDI
[12] = Metabolic stability in rat hepatocytes assessed as intrinsic clearance measured per 10^6 cells; assay type: ADME, cell-based, Hepatocyte; settings: read-out: CLH
[13] = target: CYP2C19 (Homo sapiens, UniProt P33261); assay: Time dependent inhibition of CYP2C19 (unknown origin) at 30 uM measured after 30 mins relative to control; assay type: ADME; settings: read-out: TDI
[14] = target: hERG (KCNH2) (Homo sapiens, UniProt Q12809); assay: Inhibition of hERG at 10 uM by high throughput cell based patch clamp assay; assay type: toxicity
[15] = target: T2, CYP3A4; assay: Time dependent inhibition of CYP3A4 (unknown origin) using midazolam as substrate at 30 uM measured after 30 mins relative to control; assay type: ADME; settings: probe midazolam, read-out: TDI
[16] = Clearance in Sprague-Dawley rat at 0.5 mg/kg, iv measured up to 24 hrs by LC-MS/MS analysis; assay type: ADME, organism-based; settings: in vivo
[17] = Clearance in cynomolgus monkey at 0.5 mg/kg, iv measured up to 24 hrs by LC-MS/MS analysis; assay type: ADME, organism-based, Macaca fascicularis; settings: in vivo
[18] = AUCinf in Sprague-Dawley rat at 2 mg/kg, po measured up to 8 hrs by LC-MS/MS analysis; assay type: ADME, organism-based; settings: in vivo
[19] = Clearance in CD-1 mouse at 0.5 mg/kg, iv measured up to 24 hrs by LC-MS/MS analysis; assay type: ADME, organism-based; settings: in vivo
[20] = target: T5, CYP1A2 (Homo sapiens, UniProt P05177); assay: Time dependent inhibition of CYP1A2 (unknown origin) at 30 uM measured after 30 mins relative to control; assay type: ADME; settings: read-out: TDI
T5 sequence (P05177 whole entry): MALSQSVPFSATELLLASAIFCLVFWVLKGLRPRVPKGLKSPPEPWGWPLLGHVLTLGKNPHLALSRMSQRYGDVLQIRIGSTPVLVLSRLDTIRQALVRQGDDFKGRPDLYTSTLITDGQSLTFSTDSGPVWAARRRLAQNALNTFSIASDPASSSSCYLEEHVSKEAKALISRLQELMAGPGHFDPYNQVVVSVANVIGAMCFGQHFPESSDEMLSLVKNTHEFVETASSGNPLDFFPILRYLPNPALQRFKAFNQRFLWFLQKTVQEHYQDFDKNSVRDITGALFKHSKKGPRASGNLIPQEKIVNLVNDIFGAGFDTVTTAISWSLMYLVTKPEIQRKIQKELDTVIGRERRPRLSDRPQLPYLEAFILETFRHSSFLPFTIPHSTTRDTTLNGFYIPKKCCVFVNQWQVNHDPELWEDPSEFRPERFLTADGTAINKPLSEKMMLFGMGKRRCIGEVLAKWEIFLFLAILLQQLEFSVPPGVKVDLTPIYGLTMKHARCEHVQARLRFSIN

[21] = tested on: 786-0; assay: Anti-tumor activity against human 786-0 cells xenografted in mouse model assessed as tumor growth inhibition at 40 mg/kg, po once daily for 15 days; assay type: functional, organism-based; settings: time 15.0 day

T2 sequence (P08684 whole entry): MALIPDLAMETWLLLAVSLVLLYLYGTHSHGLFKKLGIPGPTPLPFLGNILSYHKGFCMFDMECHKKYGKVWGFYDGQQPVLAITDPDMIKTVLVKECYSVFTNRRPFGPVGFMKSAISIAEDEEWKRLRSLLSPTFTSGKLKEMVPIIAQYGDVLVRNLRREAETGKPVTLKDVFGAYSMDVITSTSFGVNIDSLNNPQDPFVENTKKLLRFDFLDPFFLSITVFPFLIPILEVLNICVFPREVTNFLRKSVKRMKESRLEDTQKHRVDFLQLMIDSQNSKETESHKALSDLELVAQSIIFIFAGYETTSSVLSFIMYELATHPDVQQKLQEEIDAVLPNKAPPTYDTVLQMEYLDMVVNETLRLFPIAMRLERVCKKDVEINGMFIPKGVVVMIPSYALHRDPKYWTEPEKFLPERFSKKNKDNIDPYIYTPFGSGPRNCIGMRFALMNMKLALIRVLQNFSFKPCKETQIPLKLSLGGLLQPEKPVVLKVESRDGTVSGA
Chain of CYP2D6 (P10635 whole entry): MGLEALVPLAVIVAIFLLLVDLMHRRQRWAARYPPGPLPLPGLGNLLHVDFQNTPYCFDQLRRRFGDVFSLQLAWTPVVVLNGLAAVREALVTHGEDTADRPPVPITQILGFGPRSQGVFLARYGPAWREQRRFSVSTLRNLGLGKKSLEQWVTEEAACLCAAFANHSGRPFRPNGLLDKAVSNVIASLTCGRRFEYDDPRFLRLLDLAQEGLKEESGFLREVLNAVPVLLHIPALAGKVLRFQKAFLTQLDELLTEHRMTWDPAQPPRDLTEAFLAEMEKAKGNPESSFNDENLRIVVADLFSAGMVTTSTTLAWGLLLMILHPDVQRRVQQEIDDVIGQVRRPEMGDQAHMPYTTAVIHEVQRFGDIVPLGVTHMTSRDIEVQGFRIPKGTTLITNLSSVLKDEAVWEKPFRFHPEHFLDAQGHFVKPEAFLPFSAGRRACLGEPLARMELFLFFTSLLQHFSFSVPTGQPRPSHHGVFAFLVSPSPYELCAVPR
Chain of CYP2C19 (P33261 whole entry): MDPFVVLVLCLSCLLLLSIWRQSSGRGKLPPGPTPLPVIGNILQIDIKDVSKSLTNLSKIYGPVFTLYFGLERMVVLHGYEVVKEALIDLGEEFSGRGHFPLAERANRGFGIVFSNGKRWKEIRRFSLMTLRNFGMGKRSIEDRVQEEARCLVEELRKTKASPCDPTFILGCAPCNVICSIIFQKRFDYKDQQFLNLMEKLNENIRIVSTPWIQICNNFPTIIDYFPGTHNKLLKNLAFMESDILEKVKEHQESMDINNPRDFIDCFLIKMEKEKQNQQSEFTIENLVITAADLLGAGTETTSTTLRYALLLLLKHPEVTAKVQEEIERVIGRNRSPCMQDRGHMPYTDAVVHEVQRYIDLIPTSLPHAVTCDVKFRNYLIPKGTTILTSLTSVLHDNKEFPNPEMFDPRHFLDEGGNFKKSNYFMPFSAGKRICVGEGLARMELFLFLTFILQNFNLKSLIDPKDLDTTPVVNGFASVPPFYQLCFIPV
Chain of hERG (KCNH2) (Q12809 whole entry): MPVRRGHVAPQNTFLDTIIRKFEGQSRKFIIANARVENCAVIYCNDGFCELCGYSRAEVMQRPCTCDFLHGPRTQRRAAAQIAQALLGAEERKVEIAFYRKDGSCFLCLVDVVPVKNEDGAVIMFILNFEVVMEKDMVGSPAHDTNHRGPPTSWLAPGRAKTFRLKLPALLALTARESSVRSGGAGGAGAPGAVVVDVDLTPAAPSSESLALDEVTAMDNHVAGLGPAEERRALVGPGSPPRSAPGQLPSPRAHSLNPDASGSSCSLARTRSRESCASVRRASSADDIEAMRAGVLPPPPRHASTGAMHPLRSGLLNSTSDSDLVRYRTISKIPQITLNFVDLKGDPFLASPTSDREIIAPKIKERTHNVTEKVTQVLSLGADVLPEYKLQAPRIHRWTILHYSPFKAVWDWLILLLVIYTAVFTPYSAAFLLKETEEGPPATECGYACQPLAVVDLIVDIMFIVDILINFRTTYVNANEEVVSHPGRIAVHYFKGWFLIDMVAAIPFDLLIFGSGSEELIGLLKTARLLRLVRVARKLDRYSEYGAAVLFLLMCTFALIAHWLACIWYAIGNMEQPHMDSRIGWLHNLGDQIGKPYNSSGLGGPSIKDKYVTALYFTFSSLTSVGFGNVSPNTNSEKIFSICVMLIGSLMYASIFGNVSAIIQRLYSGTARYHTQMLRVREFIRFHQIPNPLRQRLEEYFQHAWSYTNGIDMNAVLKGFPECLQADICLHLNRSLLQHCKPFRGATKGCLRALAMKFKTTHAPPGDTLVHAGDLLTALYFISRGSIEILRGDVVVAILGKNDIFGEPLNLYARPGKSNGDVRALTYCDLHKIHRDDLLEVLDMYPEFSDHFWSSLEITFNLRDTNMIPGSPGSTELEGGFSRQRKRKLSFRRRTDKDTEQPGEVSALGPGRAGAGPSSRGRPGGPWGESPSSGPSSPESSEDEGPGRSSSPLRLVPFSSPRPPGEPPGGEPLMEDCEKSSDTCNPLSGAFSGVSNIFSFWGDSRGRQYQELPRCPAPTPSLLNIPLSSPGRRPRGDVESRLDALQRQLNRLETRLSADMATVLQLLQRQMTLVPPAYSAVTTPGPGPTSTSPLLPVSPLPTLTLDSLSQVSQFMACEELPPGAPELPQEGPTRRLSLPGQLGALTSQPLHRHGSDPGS
Chain of CYP2C9 (P11712 whole entry): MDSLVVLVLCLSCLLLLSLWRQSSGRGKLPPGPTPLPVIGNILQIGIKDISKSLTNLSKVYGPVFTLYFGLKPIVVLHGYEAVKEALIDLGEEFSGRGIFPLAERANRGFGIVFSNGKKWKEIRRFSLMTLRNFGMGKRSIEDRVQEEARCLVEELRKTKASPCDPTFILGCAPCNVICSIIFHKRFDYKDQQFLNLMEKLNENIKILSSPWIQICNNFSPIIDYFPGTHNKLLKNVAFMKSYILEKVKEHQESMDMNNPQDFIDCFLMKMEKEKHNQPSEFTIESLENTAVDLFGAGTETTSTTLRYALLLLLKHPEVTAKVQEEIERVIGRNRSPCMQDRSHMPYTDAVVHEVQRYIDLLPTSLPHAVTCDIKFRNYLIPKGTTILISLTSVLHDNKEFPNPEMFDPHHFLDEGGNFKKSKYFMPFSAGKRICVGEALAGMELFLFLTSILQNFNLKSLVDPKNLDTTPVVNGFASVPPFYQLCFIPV

Molecule `Cc1cccnc1-c1ccc(-c2n[nH]c3ncc(-c4ccc5c(c4)CC[C@@H](N4C6COCC4C6)CC5)cc23)cc1` has a clearance [1] of 25 mL/min/kg, an inhibition at 0.5 h, 30 µM [2] of 22% and an inhibition at 0.5 h, 30 µM [3] of 2.4%. The inhibition at 0.5 h, 30 µM [4] was 50%, the inhibition at 0.5 h, 30 µM [5] was 14% and the IC50 [6] was 2.4 nM. It also gave an IC50 [7] of 65 nM, a hepatocyte CLint [8] of less than 2.7 µL/min/1e6 cells and an efflux ratio [9] of 1. For the same molecule, the Papp A→B [10] was 0.96 ×10⁻⁶ cm/s, the inhibition at 0.5 h, 30 µM [11] was 0% and the hepatocyte CLint [12] was 2.7 µL/min/1e6 cells. It also gave an inhibition at 0.5 h, 30 µM [13] of 23%, an inhibition at 10 µM [14] of 23% and an inhibition at 0.5 h, 30 µM [15] of 31%. It also gave a clearance [16] of 2.67 mL/min/kg, a clearance [17] of 6.83 mL/min/kg and an AUC(0-inf) [18] of 3000 ng·h/mL. It also gave a clearance [19] of 5.33 mL/min/kg and an inhibition at 0.5 h, 30 µM [20] of 24%.

In the case of `CCN(CC)CCNC(=O)c1c(C)[nH]c(/C=C2\C(=O)Nc3ccc(F)cc32)c1C`, the Activity [21] is reported as “inactive”.
